Results reported in patent US5739278A, “Compositions for protein tyrosine phosphatases” (University of Washington, priority 1995, dated 1998).

What was measured:
Test in all cases: Phosphatase assay with ENDY(P)INASL as substrate
Assay type in all cases: biochemical
CD45 = molecular target: T1, CD45 (Homo sapiens, UniProt P08575)
T1 construct: CD45 were purified from placenta and spleen, respectively; from tissue; host or cells: spleen
T1 sequence (P08575 26-1306): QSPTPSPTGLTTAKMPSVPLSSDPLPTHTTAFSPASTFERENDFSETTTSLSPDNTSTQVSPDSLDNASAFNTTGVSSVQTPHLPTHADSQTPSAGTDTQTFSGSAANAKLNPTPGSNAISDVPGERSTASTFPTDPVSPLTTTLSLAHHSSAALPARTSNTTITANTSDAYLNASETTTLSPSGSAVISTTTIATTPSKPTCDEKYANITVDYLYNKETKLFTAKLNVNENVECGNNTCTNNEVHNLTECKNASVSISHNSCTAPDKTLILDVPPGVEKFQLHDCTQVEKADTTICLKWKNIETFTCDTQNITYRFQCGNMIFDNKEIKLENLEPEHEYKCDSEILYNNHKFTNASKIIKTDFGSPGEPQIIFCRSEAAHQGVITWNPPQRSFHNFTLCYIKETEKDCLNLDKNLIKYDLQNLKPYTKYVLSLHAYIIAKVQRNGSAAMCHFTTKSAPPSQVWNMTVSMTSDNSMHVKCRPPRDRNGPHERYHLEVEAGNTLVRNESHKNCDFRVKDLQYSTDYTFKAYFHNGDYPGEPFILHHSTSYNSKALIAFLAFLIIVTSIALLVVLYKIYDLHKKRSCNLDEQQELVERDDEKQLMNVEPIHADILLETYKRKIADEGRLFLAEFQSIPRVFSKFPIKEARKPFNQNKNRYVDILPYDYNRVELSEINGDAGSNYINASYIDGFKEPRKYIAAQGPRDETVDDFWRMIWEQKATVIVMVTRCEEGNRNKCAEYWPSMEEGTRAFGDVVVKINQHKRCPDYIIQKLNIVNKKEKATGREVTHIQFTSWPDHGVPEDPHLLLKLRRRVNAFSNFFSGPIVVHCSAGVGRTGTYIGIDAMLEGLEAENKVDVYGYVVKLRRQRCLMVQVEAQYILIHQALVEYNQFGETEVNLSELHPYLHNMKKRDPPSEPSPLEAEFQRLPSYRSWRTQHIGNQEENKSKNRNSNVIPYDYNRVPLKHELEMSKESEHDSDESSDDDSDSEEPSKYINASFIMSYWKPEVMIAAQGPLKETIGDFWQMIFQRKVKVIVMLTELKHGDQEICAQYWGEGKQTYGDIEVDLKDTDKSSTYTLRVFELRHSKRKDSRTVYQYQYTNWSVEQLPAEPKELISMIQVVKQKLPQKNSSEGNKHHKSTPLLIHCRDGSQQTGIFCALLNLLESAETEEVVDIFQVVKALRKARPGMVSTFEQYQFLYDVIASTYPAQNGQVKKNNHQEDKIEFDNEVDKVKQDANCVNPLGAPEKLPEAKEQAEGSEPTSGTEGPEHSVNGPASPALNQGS
Experimental: (§1) The tyrosine phosphatases TC.PTP, TCΔC11.PTP, and RPTPα were purified from infected Sf9 cells as described recently (Zander et al., Biochemistry 30: 6964-6970, 1991; Daum et al., J. Biol. Chem. 266: 12211-12215, 1991). The 37 kDa form of PTP1B and CD45 were purified from placenta and spleen, respectively (according to Tonks et al., J. Biol. Chem. 263: 6722-6730, 1988; Tonks et al., Biochemistry 27: 8695-8701, 1988).
(§2) Phosphatase assays with ENDY(P)INASL were performed in buffer M6. Aliquots of 30 μl or 60 μl containing the phosphopeptide, the phosphatase (-beads) and effectors were incubated for 10 minutes at 30° C. The reaction was stopped by adding 200 μl of a suspension of 10% activated, acid-washed Norit A charcoal (v/v) in 0.9N HCl, 0.1M pyrophosphate and 2 mM NaH2 PO4 (according to Streuli et al., Proc. Natl. Acad. Sci. USA 86: 8698-8702, 1989). The mixture was cleared by 10-minute centrifugation and the radioactivity of 150 μl of the supernate was determined. Assays with MBP and RCML were performed as described in Tonks et al., J. Biol. Chem. 263: 6722-6730, 1988. Protein concentration was determined with BSA as standard (Bradford, Anal. Biochem. 72: 248-254, 1976).

PTP1B = molecular target: T2, PTP1B (Homo sapiens, UniProt P18031)
T2 construct: The 37 kDa form of PTP1B; from tissue; host or cells: placenta
T2 sequence (P18031 1-321 limits assumed): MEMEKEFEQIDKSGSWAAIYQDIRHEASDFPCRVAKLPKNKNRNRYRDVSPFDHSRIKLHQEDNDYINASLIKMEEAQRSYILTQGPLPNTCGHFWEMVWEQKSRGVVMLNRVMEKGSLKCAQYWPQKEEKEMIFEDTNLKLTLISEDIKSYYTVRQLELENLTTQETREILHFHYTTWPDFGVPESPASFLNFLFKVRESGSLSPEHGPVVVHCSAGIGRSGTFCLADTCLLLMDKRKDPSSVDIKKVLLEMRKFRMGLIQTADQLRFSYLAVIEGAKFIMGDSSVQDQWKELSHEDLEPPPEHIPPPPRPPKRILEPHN
Experimental: as §1, §2

RPTPα = molecular target: T3, RPTPα (Homo sapiens, UniProt P18433)
T3 construct: made in house; host or cells: Sf9 cells (baculovirus)
Experimental: as §1, §2

TC.PTP = molecular target: T4, TC.PTP (Homo sapiens, UniProt P17706); conditions: TC.PTP
T4 construct: made in house; host or cells: Sf9 cells (baculovirus)
T4 sequence (P17706 1-415): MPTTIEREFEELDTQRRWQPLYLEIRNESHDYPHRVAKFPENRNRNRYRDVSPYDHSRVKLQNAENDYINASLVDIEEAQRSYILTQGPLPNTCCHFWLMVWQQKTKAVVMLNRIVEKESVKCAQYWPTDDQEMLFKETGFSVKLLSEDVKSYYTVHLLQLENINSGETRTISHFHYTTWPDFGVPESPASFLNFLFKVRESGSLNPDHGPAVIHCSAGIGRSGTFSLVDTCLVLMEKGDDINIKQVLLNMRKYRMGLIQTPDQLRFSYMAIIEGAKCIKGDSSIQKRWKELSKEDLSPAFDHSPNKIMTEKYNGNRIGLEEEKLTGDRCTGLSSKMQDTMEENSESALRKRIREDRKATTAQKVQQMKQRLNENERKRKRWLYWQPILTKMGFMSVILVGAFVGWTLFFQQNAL
Experimental: as §1, §2

TCΔC11.PTP = molecular target: T5, TCΔC11.PTP (Homo sapiens, UniProt P17706)
T5 construct: both the wild type and truncated forms of the T-cell phosphatase; made in house; host or cells: Sf9 cells (baculovirus)
T5 sequence (P17706 1-317 limits assumed): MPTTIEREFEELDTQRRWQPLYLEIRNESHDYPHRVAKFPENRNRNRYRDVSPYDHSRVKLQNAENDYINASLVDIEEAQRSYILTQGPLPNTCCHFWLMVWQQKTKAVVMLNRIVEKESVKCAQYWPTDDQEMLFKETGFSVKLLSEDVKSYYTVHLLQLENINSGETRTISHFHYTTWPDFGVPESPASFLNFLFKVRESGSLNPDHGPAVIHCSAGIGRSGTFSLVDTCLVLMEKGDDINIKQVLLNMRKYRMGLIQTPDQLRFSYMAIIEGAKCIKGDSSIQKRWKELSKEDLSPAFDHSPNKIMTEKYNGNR
Experimental: as §1, §2

[1] = 10 min, effector 0.1 mM, read-out: Phosphatase activity in percent of the value obtained in the absence of effectors
[2] = 10 min, effector 0.5 mM, read-out: Phosphatase activity in percent of the value obtained in the absence of effectors
[3] = 10 min, effector 1.0 mM, read-out: Phosphatase activity in percent of the value obtained in the absence of effectors
[4] = 10 min, effector 2.0 mM, read-out: Phosphatase activity in percent of the value obtained in the absence of effectors
[5] = 10 min, effector 5.0 mM, read-out: Phosphatase activity in percent of the value obtained in the absence of effectors

T3 sequence (P18433 20-802): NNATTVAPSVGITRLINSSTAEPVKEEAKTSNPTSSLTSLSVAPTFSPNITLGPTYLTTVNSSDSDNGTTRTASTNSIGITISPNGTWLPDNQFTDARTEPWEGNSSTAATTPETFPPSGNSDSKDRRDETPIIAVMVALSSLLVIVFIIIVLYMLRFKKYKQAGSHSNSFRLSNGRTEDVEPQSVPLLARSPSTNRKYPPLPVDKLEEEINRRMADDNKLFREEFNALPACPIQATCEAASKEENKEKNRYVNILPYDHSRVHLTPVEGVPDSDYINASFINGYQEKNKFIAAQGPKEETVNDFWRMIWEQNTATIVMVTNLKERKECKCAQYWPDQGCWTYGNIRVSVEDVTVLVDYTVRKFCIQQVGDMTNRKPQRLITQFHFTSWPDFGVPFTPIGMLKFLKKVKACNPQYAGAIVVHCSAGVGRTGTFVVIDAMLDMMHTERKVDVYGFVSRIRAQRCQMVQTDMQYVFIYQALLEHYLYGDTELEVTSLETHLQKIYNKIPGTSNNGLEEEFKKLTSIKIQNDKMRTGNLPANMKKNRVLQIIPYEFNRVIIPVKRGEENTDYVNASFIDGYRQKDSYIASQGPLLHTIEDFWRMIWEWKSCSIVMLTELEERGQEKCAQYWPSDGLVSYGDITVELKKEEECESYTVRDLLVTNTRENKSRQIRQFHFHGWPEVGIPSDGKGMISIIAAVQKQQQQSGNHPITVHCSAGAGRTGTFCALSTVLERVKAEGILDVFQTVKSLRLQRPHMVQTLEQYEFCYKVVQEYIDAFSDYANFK

heparin was tested, and the “Phosphatase activity in percent of the value obtained in the absence of effectors” value (“Phosphatase activity in percent” for short) (CD45; effector 0.01 μM) was 8%, the “Phosphatase activity in percent” value (CD45; effector 0.1 μM) was 0% and the “Phosphatase activity in percent” value (CD45; effector 1.0 μM) was 0%. For the same compound, the “Phosphatase activity in percent” value (PTP1B; effector 0.01 μM) was 91%, the “Phosphatase activity in percent” value (PTP1B; effector 0.1 μM) was 0% and the “Phosphatase activity in percent” value (PTP1B; effector 1.0 μM) was 0%. For the same compound, the “Phosphatase activity in percent” value (RPTPα; effector 0.01 μM) was 82%, the “Phosphatase activity in percent” value (RPTPα; effector 0.1 μM) was 40% and the “Phosphatase activity in percent” value (RPTPα; effector 1.0 μM) was 19%. The “Phosphatase activity in percent” value (TC.PTP; effector 0.01 μM) was 8%, the “Phosphatase activity in percent” value (TC.PTP; effector 0.1 μM) was 1% and the “Phosphatase activity in percent” value (TC.PTP; effector 1.0 μM) was 0%. For the same compound, the “Phosphatase activity in percent” value (TCΔC11.PTP; effector 0.01 μM) was 88%, the “Phosphatase activity in percent” value (TCΔC11.PTP; effector 0.1 μM) was 4% and the “Phosphatase activity in percent” value (TCΔC11.PTP; effector 1.0 μM) was 0%.

In the case of `[Zn+2]` [Zn^2+], the “Phosphatase activity in percent” value (CD45; effector 0.01 mM) is reported as 92%, the “Phosphatase activity in percent” value (CD45; effector 0.1 mM) is reported as 53% and the “Phosphatase activity in percent” value (CD45; effector 1.0 mM) is reported as 3%. For the same compound, the “Phosphatase activity in percent” value (PTP1B; effector 0.01 mM) was 65%, the “Phosphatase activity in percent” value (PTP1B; effector 0.1 mM) was 17% and the “Phosphatase activity in percent” value (PTP1B; effector 1.0 mM) was 6%. The “Phosphatase activity in percent” value (RPTPα; effector 0.01 mM) was 99%, the “Phosphatase activity in percent” value (RPTPα; effector 0.1 mM) was 77% and the “Phosphatase activity in percent” value (RPTPα; effector 1.0 mM) was 4%. The “Phosphatase activity in percent” value (TC.PTP; effector 0.01 mM) was 61%, the “Phosphatase activity in percent” value (TC.PTP; effector 0.1 mM) was 26% and the “Phosphatase activity in percent” value (TC.PTP; effector 1.0 mM) was 8%. For the same compound, the “Phosphatase activity in percent” value (TCΔC11.PTP; effector 0.01 mM) was 61%, the “Phosphatase activity in percent” value (TCΔC11.PTP; effector 0.1 mM) was 54% and the “Phosphatase activity in percent” value (TCΔC11.PTP; effector 1.0 mM) was 21%.

For `NCCCNCCCCNCCCN` [spermine], the remaining activity at 100 µM (CD45; [1]) was 117%, the remaining activity at 500 µM (CD45; [2]) was 100% and the remaining activity at 1000 µM (CD45; [3]) was 85%. The “Phosphatase activity in percent” value (PTP1B; effector 0.1 mM) was 87%, the “Phosphatase activity in percent” value (PTP1B; effector 0.5 mM) was 89% and the “Phosphatase activity in percent” value (PTP1B; effector 1.0 mM) was 82%. It also gave a remaining activity at 100 µM (RPTPα; [1]) of 89%, a remaining activity at 500 µM (RPTPα; [2]) of 57% and a remaining activity at 1000 µM (RPTPα; [3]) of 41%. For the same compound, the remaining activity at 100 µM (TC.PTP; [1]) was 119%, the remaining activity at 500 µM (TC.PTP; [2]) was 109% and the remaining activity at 1000 µM (TC.PTP; [3]) was 82%. The remaining activity at 100 µM (TCΔC11.PTP; [1]) was 81%, the remaining activity at 500 µM (TCΔC11.PTP; [2]) was 60% and the remaining activity at 1000 µM (TCΔC11.PTP; [3]) was 55%.

For `NCCCCNCCCN` [spermidine], the remaining activity at 100 µM (CD45; [1]) was 103%, the remaining activity at 2000 µM (CD45; [4]) was 92% and the remaining activity at 5000 µM (CD45; [5]) was 83%. The “Phosphatase activity in percent” value (PTP1B; effector 0.1 mM) was 89%, the “Phosphatase activity in percent” value (PTP1B; effector 2.0 mM) was 94% and the “Phosphatase activity in percent” value (PTP1B; effector 5.0 mM) was 92%. For the same compound, the remaining activity at 100 µM (RPTPα; [1]) was 72%, the remaining activity at 2000 µM (RPTPα; [4]) was 60% and the remaining activity at 5000 µM (RPTPα; [5]) was 34%. It also gave a remaining activity at 100 µM (TC.PTP; [1]) of 92%, a remaining activity at 2000 µM (TC.PTP; [4]) of 88% and a remaining activity at 5000 µM (TC.PTP; [5]) of 91%. It also gave a remaining activity at 100 µM (TCΔC11.PTP; [1]) of 67%, a remaining activity at 2000 µM (TCΔC11.PTP; [4]) of 65% and a remaining activity at 5000 µM (TCΔC11.PTP; [5]) of 66%.
